Source: patent US9981942B2, “Piperidine derivatives having multimodal activity against pain” (LABORATORIOS DEL DR. ESTEVE S.A., priority 2013, dated 2018)

Molecular target: σ1 receptor and the μ-opiod receptor
Test: μ and σ1 dual binding: combined class from the Ki of both radioligand assays
Set-up: species or system human; key to μ and σ1 dual binding: +: Both Ki-μ and Ki-σ1>=500 nM; ++: One Ki<500 nM while the other Ki is >=500 nM; +++: Both Ki-μ and Ki-σ1<500 nM; ++++: Both Ki-μ and Ki-σ1<100 nM
Conditions: transfected HEK-293 membranes (σ1), transfected CHO-K1 cell membranes (μ); for μ and σ1 dual binding: combined class for Ki-μ and Ki-σ1
Method: To investigate binding properties of σ1 receptor ligands to human σ1 receptor, transfected HEK-293 membranes and [^3H](+)-pentazocine (Perkin Elmer, NET-1056), as the radioligand, were used. The assay was carried out with 7 μg of membrane suspension, 5 nM of [^3H](+)-pentazocine in either absence or presence of either buffer or 10 μM Haloperidol for total and non-specific binding, respectively. Binding buffer contained Tris-HCl 50 mM at pH 8. Plates were incubated at 37° C. for 120 minutes. After the incubation period, the reaction mix was then transferred to MultiScreen HTS, FC plates (Millipore), filtered and plates were washed 3 times with ice-cold 10 mM Tris-HCL (pH7.4). Filters were dried and counted at approximately 40% efficiency in a MicroBeta scintillation counter (Perkin-Elmer) using EcoScint liquid scintillation cocktail
To investigate binding properties of mu-opioid receptor ligands to human μ-opioid receptor, transfected CHO-K1 cell membranes and [^3H]-DAMGO (Perkin Elmer, ES-542-C), as the radioligand, were used. The assay was carried out with 20 μg of membrane suspension, 1 nM of [^3H]-DAMGO in either absence or presence of either buffer or 10 μM Naloxone for total and non-specific binding, respectively. Binding buffer contained Tris-HCl 50 mM, MgCl2 5 mM at pH 7.4. Plates were incubated at 27° C. for 60 minutes. After the incubation period, the reaction mix was then transferred to MultiScreen HTS, FC plates (Millipore), filtered and plates were washed 3 times with ice-cold 10 mM Tris-HCL (pH 7.4). Filters were dried and counted at approximately 40% efficiency in a MicroBeta scintillation counter (Perkin-Elmer) using EcoScint liquid scintillation cocktail.
The following scale as been adopted for representing the binding to the σ1 receptor and the μ-opiod receptor expressed as Ki: • + Both Ki-μ and Ki-σ1>=500 nM • ++ One Ki<500 nM while the other Ki is >=500 nM • +++ Both Ki-μ and Ki-σ1<500 nM • ++++ Both Ki-μ and Ki-σ1<100 nM

Q: Which Ki range for both μ and σ1 (dual-binding class) does the source give for `CC(C)n1cc(CN2CCC(c3cccc(O)c3)CC2)nn1` [Example 23, 3-(1-((1-isopropyl-1H-1,2,3-triazol-4-yl)methyl)piperidin-4-yl)phenol] here?
A: < 500 nM

Q: Which Ki range for both μ and σ1 (dual-binding class) does the source give for `CC(C)Cn1cc(CN2CCC(c3cccc(O)c3)CC2)nn1` [Example 25, 3-(1-((1-isobutyl-1H-1,2,3-triazol-4-yl)methyl)piperidin-4-yl)phenol] here?
A: < 100 nM

Q: Which “μ and σ1 dual binding” value does the source give for `c1ccc(-n2cc(CN3CCC(c4ccc5cn[nH]c5c4)CC3)nn2)cc1` [Example 26, 6-(1-((1-phenyl-1H-1,2,3-triazol-4-yl)methyl)piperidin-4-yl)-1H-indazole] here?
A: ++

Q: Which Ki range for both μ and σ1 (dual-binding class) does the source give for `CS(=O)(=O)Nc1cccc(C2CCN(Cc3cn(-c4ccccc4F)nn3)CC2)c1` [Example 27, N-(3-(1-((1-(2-fluorophenyl)-1H-1,2,3-triazol-4-yl)methyl)piperidin-4-yl)phenyl)methanesulfonamide] here?
A: < 100 nM

Q: Which Ki range for both μ and σ1 (dual-binding class) does the source give for `CS(=O)(=O)Nc1cccc(C2CCN(Cc3cn(-c4cccc(F)c4)nn3)CC2)c1` [Example 28, N-(3-(1-((1-(3-fluorophenyl)-1H-1,2,3-triazol-4-yl)methyl)piperidin-4-yl)phenyl)methanesulfonamide] here?
A: < 100 nM

Q: How did the Ki range for both μ and σ1 (dual-binding class) turn out when `c1ccc(-n2cc(CN3CCC(c4cccc5[nH]ncc45)CC3)nn2)cc1` [Example 29, 4-(1-((1-phenyl-1H-1,2,3-triazol-4-yl)methyl)piperidin-4-yl)-1H-indazole] was run?
A: < 500 nM

Q: `c1ccc(-n2cc(CN3CCC(c4cccc(-c5ncc[nH]5)c4)CC3)nn2)cc1` [Example 30, 4-(3-(1H-imidazol-2-yl)phenyl)-1-((1-phenyl-1H-1,2,3-triazol-4-yl)methyl)piperidine] was tested. Which Ki range for both μ and σ1 (dual-binding class) did it give?
A: < 500 nM

Q: `CN(c1cccc(C2CCN(Cc3cn(-c4ccccc4)nn3)CC2)c1)S(C)(=O)=O` [Example 31, N-methyl-N-(3-(1-((1-phenyl-1H-1,2,3-triazol-4-yl)methyl)piperidin-4-yl)phenyl)methanesulfonamide] was tested. Which “μ and σ1 dual binding” value did it give?
A: ++

Q: How did the “μ and σ1 dual binding” value turn out when `O=C1Cc2c(cccc2C2CCN(Cc3cn(-c4ccccc4)nn3)CC2)N1` [Example 32, 4-(1-((1-phenyl-1H-1,2,3-triazol-4-yl)methyl)piperidin-4-yl)indolin-2-one] was run?
A: ++

Q: With `CS(=O)(=O)Nc1cc(C2CCN(Cc3cn(-c4ccccc4)nn3)CC2)ccc1F` [Example 34, N-(2-fluoro-5-(1-((1-phenyl-1H-1,2,3-triazol-4-yl)methyl)piperidin-4-yl)phenyl)methanesulfonamide] as the compound, how does the Ki range for both μ and σ1 (dual-binding class) read?
A: < 500 nM

Q: For `CS(=O)(=O)Nc1cc(F)cc(C2CCN(Cc3cn(-c4ccccc4)nn3)CC2)c1` [Example 35, N-(3-fluoro-5-(1-((1-phenyl-1H-1,2,3-triazol-4-yl)methyl)piperidin-4-yl)phenyl)methanesulfonamide], which Ki range for both μ and σ1 (dual-binding class) is on record?
A: < 100 nM

Q: How did the Ki range for both μ and σ1 (dual-binding class) turn out when `Oc1cccc(C2CCN(Cc3cn(-c4ccc(F)cc4)nn3)CC2)c1` [Example 36, 3-(1-((1-(4-fluorophenyl)-1H-1,2,3-triazol-4-yl)methyl)piperidin-4-yl)phenol] was run?
A: < 100 nM

Q: Which Ki range for both μ and σ1 (dual-binding class) does the source give for `CS(=O)(=O)Nc1cccc(C2CCN(Cc3cn(Cc4ccccc4)nn3)CC2)c1` [Example 37, N-(3-(1-((1-benzyl-1H-1,2,3-triazol-4-yl)methyl)piperidin-4-yl)phenyl)methanesulfonamide] here?
A: < 500 nM

Q: For `CN(C)C(=O)Nc1cccc(C2CCN(Cc3cn(-c4ccccc4)nn3)CC2)c1` [Example 38, 1,1-dimethyl-3-(3-(1-((1-phenyl-1H-1,2,3-triazol-4-yl)methyl)piperidin-4-yl)phenyl)urea], which “μ and σ1 dual binding” value is on record?
A: ++

Q: `CC(=O)Nc1cc(F)cc(C2CCN(Cc3cn(-c4ccccc4)nn3)CC2)c1` [Example 39, N-(3-fluoro-5-(1-((1-phenyl-1H-1,2,3-triazol-4-yl)methyl)piperidin-4-yl)phenyl)acetamide] was tested. Which Ki range for both μ and σ1 (dual-binding class) did it give?
A: < 500 nM
